Source: patent US20260217692A1 (Ascentage Pharma (Suzhou) Co., Ltd., priority 2023, published 2026)
Where a name gives a salt, the structure may show the parent alone. Each block holds one compound with its values, some of them ahead of it.

How the values were obtained:
Type in all cases: physicochemical
[1] = Polymorph screening test, suspension method (crystal form by XRPD after stirring in solvent); details: for Crystal form (XRPD): free base screening, 3 days
Experimental: (or 50° C.) for 3 days in the dark and centrifuged to remove the supernatant; the resulting precipitate was dried under vacuum (25° C., −0.1 MPa); and the resulting solid was collected and subjected to the XRPD test. The results are as follows:
(or 50° C./80° C.) for 3 days in the dark and centrifuged to remove the supernatant; and the resulting precipitate was dried under vacuum (25° C., −0.1 MPa).
(or 50° C.) for 3 days in the dark and centrifuged to remove the supernatant; and the resulting precipitate was dried under vacuum (25° C., −0.1 MPa).

[2] = Stability of crystal forms under stability test conditions (appearance, XRPD, HPLC); details: for Total impurities: HPLC
Experimental: The samples were placed under the stability conditions shown in the following table, sampling was performed at the corresponding time points, and the samples were subjected to appearance and XRPD tests. […] The stability results obtained are recorded in the following table. […] The samples were placed under the stability test conditions shown in the following table, sampling was performed at different time points, and the samples were subjected to the XRPD test. […] The samples were placed in an open state under the stability test conditions of 40° C./75% RH and 90% RH; and the samples were placed in a closed state at 60° C. in a light box (the test samples in the dark were placed in the same manner as the illumination test samples, and the treatment was performed in the dark). Sampling was performed at different time points, and the samples were subjected to the XRPD test. […] The samples were placed under the stability conditions shown in the following table, sampling was performed at the corresponding time points, and the samples were subjected to appearance and XRPD tests. […] The stability results obtained are recorded in the following table.

[3] = Dynamic vapor sorption (DVS) hygroscopicity test; details: 25° C. and 80% RH
From the text: In the present disclosure, the DVS test parameters are set as follows: [table]

[4] = 0 d, listed as Phosphate crystal form E

Structure (SMILES): Cc1cc(Nc2ncc(Cl)c(Nc3ccccc3S(=O)(=O)C(C)C)n2)c(OC(C)C)cc1C1=CCN(C2CCOCC2)CC1 [listing 1 of 3 here]
Crystal form (XRPD) ([1]; suspension in 1,4-Dioxane, 25° C.): Crystal form G | Crystal form (XRPD) ([1]; suspension in 1,4-Dioxane, 50° C.): Crystal form D | Crystal form (XRPD) ([1]; suspension in 2-MeTHF, 25° C.): Crystal form D | Crystal form (XRPD) ([1]; suspension in 2-MeTHF, 50° C.): Crystal form D | Crystal form (XRPD) ([1]; suspension in ACN/water (1/1, v/v), 25° C.): Crystal form D | Crystal form (XRPD) ([1]; suspension in ACN/water (1/1, v/v), 50° C.): Crystal form D | Crystal form (XRPD) ([1]; suspension in Acetone, 25° C.): Crystal form E | Crystal form (XRPD) ([1]; suspension in Acetone, 50° C.): Crystal form E | Crystal form (XRPD) ([1]; suspension in Acetone/water (1:1, v/v), 25° C.): Crystal form D | Crystal form (XRPD) ([1]; suspension in Acetone/water (1:1, v/v), 50° C.): Crystal form D | Crystal form (XRPD) ([1]; suspension in Acetonitrile, 25° C.): Crystal form D | Crystal form (XRPD) ([1]; suspension in Acetonitrile, 50° C.): Crystal form D | Crystal form (XRPD) ([1]; suspension in Cyclohexane, 25° C.): Crystal form D | Crystal form (XRPD) ([1]; suspension in Cyclohexane, 50° C.): Crystal form D | Crystal form (XRPD) ([1]; suspension in Dichloromethane, 25° C.): No solid sample was obtained | Crystal form (XRPD) ([1]; suspension in Dichloromethane, 50° C.): No solid sample was obtained | Crystal form (XRPD) ([1]; suspension in Ethanol, 25° C.): Crystal form B | Crystal form (XRPD) ([1]; suspension in Ethanol, 50° C.): Crystal form D | Crystal form (XRPD) ([1]; suspension in Ethyl acetate, 25° C.): Crystal form D | Crystal form (XRPD) ([1]; suspension in Ethyl acetate, 50° C.): Crystal form D | Crystal form (XRPD) ([1]; suspension in Isopropanol, 25° C.): Crystal form C | Crystal form (XRPD) ([1]; suspension in Isopropanol, 50° C.): Crystal form D | Crystal form (XRPD) ([1]; suspension in Isopropyl acetate, 25° C.): Crystal form D | Crystal form (XRPD) ([1]; suspension in Isopropyl acetate, 50° C.): Crystal form D | Crystal form (XRPD) ([1]; suspension in MA, 25° C.): Crystal form D | Crystal form (XRPD) ([1]; suspension in MA, 50° C.): Crystal form D | Crystal form (XRPD) ([1]; suspension in MEK, 25° C.): Crystal form D | Crystal form (XRPD) ([1]; suspension in MEK, 50° C.): Crystal form D | Crystal form (XRPD) ([1]; suspension in MIBK, 25° C.): Crystal form D | Crystal form (XRPD) ([1]; suspension in MIBK, 50° C.): Crystal form D | Crystal form (XRPD) ([1]; suspension in MeOH/water (1:1, v/v), 25° C.): Crystal form D | Crystal form (XRPD) ([1]; suspension in MeOH/water (1:1, v/v), 50° C.): Crystal form D | Crystal form (XRPD) ([1]; suspension in Methanol, 25° C.): Crystal form A | Crystal form (XRPD) ([1]; suspension in Methanol, 50° C.): Crystal form I | Crystal form (XRPD) ([1]; suspension in Methyl tert-butyl ether, 25° C.): Crystal form D | Crystal form (XRPD) ([1]; suspension in Methyl tert-butyl ether, 50° C.): Crystal form C | Crystal form (XRPD) ([1]; suspension in Tetrahydrofuran, 25° C.): Crystal form F | Crystal form (XRPD) ([1]; suspension in Tetrahydrofuran, 50° C.): No solid sample was obtained | Crystal form (XRPD) ([1]; suspension in Toluene, 25° C.): Crystal form D | Crystal form (XRPD) ([1]; suspension in Toluene, 50° C.): No solid sample was obtained | Crystal form (XRPD) ([1]; suspension in Water, 25° C.): Crystal form H | Crystal form (XRPD) ([1]; suspension in Water, 50° C.): Crystal form J | Crystal form (XRPD) ([1]; suspension in n-Heptane, 25° C.): Crystal forms C + D | Crystal form (XRPD) ([1]; suspension in n-Heptane, 50° C.): Crystal forms C + D | Crystal form (XRPD) ([1]; suspension in n-Hexane, 25° C.): Crystal form D | Crystal form (XRPD) ([1]; suspension in n-Hexane, 50° C.): Crystal form D

Structure (SMILES): Cc1cc(Nc2ncc(Cl)c(Nc3ccccc3S(=O)(=O)C(C)C)n2)c(OC(C)C)cc1C1=CCN(C2CCOCC2)CC1 [listing 2 of 3 here]
Total impurities [2, 4]: 1.24% | Crystal form (XRPD) [2, 4]: Significant change | Total impurities ([2]; 40° C./75% RH, 1 M, listed as Phosphate crystal form E): 1.69% | Total impurities ([2]; 40° C./75% RH, 10 d, listed as Phosphate crystal form E): 1.79% | Crystal form (XRPD) ([2]; 40° C./75% RH, 10 d and 1 M, listed as Phosphate crystal form E): Significant change | Total impurities ([2]; 60° C., 1 M, listed as Phosphate crystal form E): 2.74% | Total impurities ([2]; 60° C., 10 d, listed as Phosphate crystal form E): 3.26% | Crystal form (XRPD) ([2]; 60° C., 10 d and 1 M, listed as Phosphate crystal form E): Significant change | Total impurities ([2]; 90% RH, 1 M, listed as Phosphate crystal form E): 3.03% | Total impurities ([2]; 90% RH, 10 d, listed as Phosphate crystal form E): 2.13% | Crystal form (XRPD) ([2]; 90% RH, 10 d and 1 M, listed as Phosphate crystal form E): Significant change | Total impurities ([2]; Illumination, 5 d, listed as Phosphate crystal form E): 3.02% | Crystal form (XRPD) ([2]; Illumination, 5 d and 10 d, listed as Phosphate crystal form E): Significant change | Total impurities ([2]; Illumination, 10 d, listed as Phosphate crystal form E): 5.00%

Structure (SMILES): Cc1cc(Nc2ncc(Cl)c(Nc3ccccc3S(=O)(=O)C(C)C)n2)c(OC(C)C)cc1C1=CCN(C2CCOCC2)CC1 [listing 3 of 3 here]
Total impurities ([2]; 0 d, listed as Tartrate crystal form C): 0.28% | Total impurities ([2]; 40° C./75% RH, 1 M, listed as Tartrate crystal form C): 0.38% | Total impurities ([2]; 40° C./75% RH, 10 d, listed as Tartrate crystal form C): 0.37% | Total impurities ([2]; 60° C., 1 M, listed as Tartrate crystal form C): 0.47% | Total impurities ([2]; 60° C., 10 d, listed as Tartrate crystal form C): 0.41% | Total impurities ([2]; 90% RH, 1 M, listed as Tartrate crystal form C): 0.59% | Total impurities ([2]; 90% RH, 10 d, listed as Tartrate crystal form C): 0.48% | Total impurities ([2]; Illumination, 5 d, listed as Tartrate crystal form C): 1.01% | Appearance ([2]; Illumination, 5 d and 10 d): Color deepening | Total impurities ([2]; Illumination, 10 d, listed as Tartrate crystal form C): 1.04%

Next, values leading:

hygroscopic weight gain (DVS curve) [3]: 0.31±0.005%
Structure (SMILES): Cc1cc(Nc2ncc(Cl)c(Nc3ccccc3S(=O)(=O)C(C)C)n2)c(OC(C)C)cc1C1=CCN(C2CCOCC2)CC1 [crystal form C]

Total impurities ([2]; 0 d): 0.18% | Total impurities ([2]; 40° C./75% RH, 1 M): 0.19% | Total impurities ([2]; 40° C./75% RH, 10 d): 0.19% | Total impurities ([2]; 60° C., 1 M): 0.22% | Total impurities ([2]; 60° C., 10 d): 0.19% | Total impurities ([2]; 90% RH, 1 M): 0.19% | Total impurities ([2]; 90% RH, 10 d): 0.18% | Total impurities ([2]; Illumination, 5 d): 0.48% | Appearance ([2]; Illumination, 5 d and 10 d): Color deepening | Total impurities ([2]; Illumination, 10 d): 0.55% | stability of crystal form in solvents, citrate polymorph screening test ([1]; in solvents): relatively good stability | crystal form when stirred in solvent ([1]; methanol, ethanol, acetonitrile, acetone, ethyl acetate, dichloromethane, tetrahydrofuran, n-heptane, dioxane, or mixed solvent of methanol, acetonitrile, or acetone with water, 40° C.): remained stable
Structure (SMILES): Cc1cc(Nc2ncc(Cl)c(Nc3ccccc3S(=O)(=O)C(C)C)n2)c(OC(C)C)cc1C1=CCN(C2CCOCC2)CC1 [one equivalent of citrate crystal form B]

stability of crystal form in solvent, suspension method ([1]; acetone, tetrahydrofuran, n-heptane, or dioxane): relatively good stability | crystal form when stirred in solvent ([1]; acetone, tetrahydrofuran, n-heptane, or dioxane at 40° C.): remained stable
Structure (SMILES): Cc1cc(Nc2ncc(Cl)c(Nc3ccccc3S(=O)(=O)C(C)C)n2)c(OC(C)C)cc1C1=CCN(C2CCOCC2)CC1 [one equivalent of tartrate crystal form B]
